Species: Rattus norvegicus
Assay: DrugMatrix - Regimen: Daily Repeat
Format: toxicity, organism-based, Sprague-Dawley
Set-up: regimen Daily Repeat, gender Male, age 6-8 weeks
Conditions: in vivo, po, route oral GAVAGE, vehicle 100 % WATER; for ABSOLUTE BASOPHIL / ABSOLUTE EOSINOPHIL / ABSOLUTE LYMPHOCYTE / ABSOLUTE MONOCYTE / ABSOLUTE SEGMENTED NEUTROPHIL / BASOPHIL / EOSINOPHIL / ERYTHROCYTE COUNT / HEMATOCRIT / HEMOGLOBIN / LEUKOCYTE COUNT / LYMPHOCYTE / MEAN CORPUSCULAR HEMOGLOBIN / MEAN CORPUSCULAR HEMOGLOBIN CONCENTRATION / NEUTROPHIL / NUCLEATED RED BLOOD CELLS / PLATELET COUNT: tissue Blood; for ALANINE AMINOTRANSFERASE / ALBUMIN / ALKALINE PHOSPHATASE / ASPARTATE AMINOTRANSFERASE / BLOOD UREA NITROGEN / CARBON DIOXIDE / CHLORIDE / CREATINE PHOSPHOKINASE / CREATININE / GLUCOSE / LACTATE DEHYDROGENASE / LIPASE / PHOSPHORUS / POTASSIUM / SODIUM / TOTAL BILIRUBIN / TOTAL PROTEIN / URIC ACID / CHOLESTEROL: tissue Plasma
[1] = 0 mg/kg, 72 h, dose level Control, time 3 day
[2] = 0 mg/kg, 120 h, dose level Control, time 5 day
[3] = 94 mg/kg, 72 h, dose level High, time 3 day

## CN1[C@@H]2CC[C@H]1C[C@@H](OC(=O)C(CO)c1ccccc1)C2 (some centres not stated) [ATROPINE]
[1]
  ABSOLUTE BASOPHIL: 0 CELLS/uL
  ABSOLUTE EOSINOPHIL: 33.67 CELLS/uL
  ABSOLUTE LYMPHOCYTE: 11257.17 CELLS/uL
  ABSOLUTE MONOCYTE: 72.17 CELLS/uL
  ABSOLUTE SEGMENTED NEUTROPHIL: 1220.33 CELLS/uL
  BASOPHIL: 0%
  EOSINOPHIL: 0.33%
  ERYTHROCYTE COUNT: 5 x10E6/uL
  HEMATOCRIT: 32.62%
  HEMOGLOBIN: 12.83 G/DL
  LEUKOCYTE COUNT: 12.58 x10E3/uL
  LYMPHOCYTE: 89%
  MEAN CORPUSCULAR HEMOGLOBIN: 25.67 pg
  MEAN CORPUSCULAR HEMOGLOBIN CONCENTRATION: 39.35 G/DL
  NEUTROPHIL: 10%
  NUCLEATED RED BLOOD CELLS: 0 /100WBC
  PLATELET COUNT: 1162.5 x10E3/uL
  ALANINE AMINOTRANSFERASE: 45.33 u/L
  ALBUMIN: 3.95 G/DL
  ALKALINE PHOSPHATASE: 356.17 u/L
  ASPARTATE AMINOTRANSFERASE: 81 u/L
  BLOOD UREA NITROGEN: 11 mg/dL
  CARBON DIOXIDE: 29.83 mmol/L
  CHLORIDE: 97.8 MEQ/L
  CREATINE PHOSPHOKINASE: 211.33 u/L
  CREATININE: 0.11 mg/dL
  GLUCOSE: 164.67 mg/dL
  LACTATE DEHYDROGENASE: 143.17 u/L
  LIPASE: 10.17 u/L
  PHOSPHORUS: 10.88 mg/dL
  POTASSIUM: 6.08 MEQ/L
  SODIUM: 141.54 MEQ/L
  TOTAL BILIRUBIN: 0.23 mg/dL
  TOTAL PROTEIN: 5.65 G/DL
  URIC ACID: 1 mg/dL
[2]
  ABSOLUTE BASOPHIL: 0 CELLS/uL
  ABSOLUTE EOSINOPHIL: 48.67 CELLS/uL
  ABSOLUTE LYMPHOCYTE: 9267.83 CELLS/uL
  ABSOLUTE MONOCYTE: 194.33 CELLS/uL
  ABSOLUTE SEGMENTED NEUTROPHIL: 572.5 CELLS/uL
  BASOPHIL: 0%
  EOSINOPHIL: 0.33%
  ERYTHROCYTE COUNT: 5.41 x10E6/uL
  HEMATOCRIT: 36.17%
  HEMOGLOBIN: 13.9 G/DL
  LEUKOCYTE COUNT: 10.08 x10E3/uL
  LYMPHOCYTE: 92.17%
  MEAN CORPUSCULAR HEMOGLOBIN: 25.73 pg
  MEAN CORPUSCULAR HEMOGLOBIN CONCENTRATION: 38.45 G/DL
  NEUTROPHIL: 5.67%
  NUCLEATED RED BLOOD CELLS: 0.33 /100WBC
  PLATELET COUNT: 1122.33 x10E3/uL
  ALANINE AMINOTRANSFERASE: 52.83 u/L
  ALBUMIN: 4.12 G/DL
  ALKALINE PHOSPHATASE: 367.33 u/L
  ASPARTATE AMINOTRANSFERASE: 88 u/L
  BLOOD UREA NITROGEN: 12.67 mg/dL
  CARBON DIOXIDE: 33.67 mmol/L
  CHLORIDE: 97 MEQ/L
  CHOLESTEROL: 67.5 mg/dL
  CREATINE PHOSPHOKINASE: 358.67 u/L
  CREATININE: 0.14 mg/dL
  GLUCOSE: 152.33 mg/dL
  LACTATE DEHYDROGENASE: 180 u/L
  LIPASE: 10.5 u/L
  PHOSPHORUS: 10.63 mg/dL
  POTASSIUM: 5.99 MEQ/L
  SODIUM: 141.85 MEQ/L
  TOTAL BILIRUBIN: 0.2 mg/dL
  TOTAL PROTEIN: 6.18 G/DL
  URIC ACID: 0.52 mg/dL
[3]
  ABSOLUTE BASOPHIL: 0 CELLS/uL
  ABSOLUTE EOSINOPHIL: 0 CELLS/uL
  ABSOLUTE LYMPHOCYTE: 12944 CELLS/uL
  ABSOLUTE MONOCYTE: 33.33 CELLS/uL
  ABSOLUTE SEGMENTED NEUTROPHIL: 789.33 CELLS/uL
  BASOPHIL: 0%
  EOSINOPHIL: 0%
  ERYTHROCYTE COUNT: 5.37 x10E6/uL
  HEMATOCRIT: 33.77%
  HEMOGLOBIN: 13.4 G/DL
  LEUKOCYTE COUNT: 13.77 x10E3/uL
  LYMPHOCYTE: 93.67%
  MEAN CORPUSCULAR HEMOGLOBIN: 24.93 pg
  MEAN CORPUSCULAR HEMOGLOBIN CONCENTRATION: 39.67 G/DL
  NEUTROPHIL: 6%
  NUCLEATED RED BLOOD CELLS: 0 /100WBC
  PLATELET COUNT: 1031.67 x10E3/uL
  ALANINE AMINOTRANSFERASE: 59.33 u/L
  ALBUMIN: 4.03 G/DL
  ALKALINE PHOSPHATASE: 322.67 u/L
  ASPARTATE AMINOTRANSFERASE: 115 u/L
  BLOOD UREA NITROGEN: 11 mg/dL
  CARBON DIOXIDE: 26.33 mmol/L
  CHLORIDE: 102.5 MEQ/L
  CHOLESTEROL: 72.67 mg/dL
  CREATINE PHOSPHOKINASE: 681.33 u/L
  CREATININE: 0.13 mg/dL
  GLUCOSE: 149.67 mg/dL
  LACTATE DEHYDROGENASE: 237 u/L
  LIPASE: 10.67 u/L
  PHOSPHORUS: 9.43 mg/dL
  POTASSIUM: 5.53 MEQ/L
  SODIUM: 142.3 MEQ/L
  TOTAL BILIRUBIN: 0.3 mg/dL
  TOTAL PROTEIN: 5.6 G/DL
  URIC ACID: 1 mg/dL

Reference: ChEMBL document CHEMBL3885881, “DrugMatrix”
